Assay results from patent US6358883B1, “Pesticidal and parasiticidal use of 1-aryl-1-(substituted thio, sulfinyl and sulfonyl)-2-nitroethane compounds” (American Cyanamid Company, priority 1998, dated 2002).

Experiments:
Assay type in all cases: in vivo
[1] = system: C. elegans (Bristol strain); assay: Evaluation of test compounds against C. elegans (motility, 96-well plate); parameters: key: 9=complete kill in 4 hours; 8=complete kill in 24 hours; 7=markedly reduced motility in approximately 95% of worms in 24 hours; 0=normal motility, same as controls; details: motility at 4 and 24 hours
How it was run: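 Activity is a semi-quantitative visual score of adult and larval movement, read at 4 h and 24 h post-immersion at 20 °C after gentle tapping. Worms were suspended in Na buffer in wells where compound, dissolved in 80% acetone, had been evaporated.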

[2] = system: Spodoptera eridania, 2nd instar larvae, southern armyworm (SAW); assay: Southern armyworm (SAW) leaf dip test; parameters: key: 0 = no effect; 1 = 10-25% kill; 2 = 26-35% kill; 3 = 36-45% kill; 4 = 46-55% kill; 5 = 56-65% kill; 6 = 66-75% kill; 7 = 76-85% kill; 8 = 86-99% kill; 9 = 100% kill
How it was run: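 Ten 2nd instar caterpillars feed on a Sieva lima bean leaf that was dipped 3 seconds in test solution (stock 10,000 ppm in 35% acetone/water, water-diluted). Five days later, larvae are assessed for death, feeding reduction or abnormal molting.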

[3] = system: Diabrotica virgifera virgifera Leconte, 2nd instar western corn rootworm (WCR); assay: Western corn rootworm (WCR) soil test; parameters: key: 0 = no effect; 1 = 10-25% kill; 2 = 26-35% kill; 3 = 36-45% kill; 4 = 46-55% kill; 5 = 56-65% kill; 6 = 66-75% kill; 7 = 76-85% kill; 8 = 86-99% kill; 9 = 100% kill
How it was run: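 Ten 2nd-instar rootworm larvae are placed in jars of moist soil with millet seed and talc treated with 1.25 mg active ingredient (roughly 50 kg/ha) from a 35% acetone-in-water solution. After 5 days mortality is scored, counting missing larvae as dead.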

[4] = system: Spodoptera eridania, eggs-southern armyworm (SAW-Eggs); assay: Southern armyworm eggs (SAW-Eggs) treated diet test; parameters: key: 0 = no effect; 1 = 10-25% kill; 2 = 26-35% kill; 3 = 36-45% kill; 4 = 46-55% kill; 5 = 56-65% kill; 6 = 66-75% kill; 7 = 76-85% kill; 8 = 86-99% kill; 9 = 100% kill; details: mortality after 7 days
How it was run: (§1)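 Eggs of S. eridania or D. undecimpunctata howardi were set on artificial diet pretreated with test solution (10,000 ppm stock in 35% aqueous acetone, water dilutions) and dried. Wells were sealed with vented clear covers, and mortality was scored at day 7.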

[5] = system: Tetranychus urticae (OP-resistant strain), 2-spotted spider mite (TSM); assay: 2-spotted spider mite (TSM) plant dip test; parameters: key: 0 = no effect; 1 = 10-25% kill; 2 = 26-35% kill; 3 = 36-45% kill; 4 = 46-55% kill; 5 = 56-65% kill; 6 = 66-75% kill; 7 = 76-85% kill; 8 = 86-99% kill; 9 = 100% kill; details: mortality after 2 days
How it was run: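 Mortality counted 2 days after a 3 s agitated dip of infested Sieva lima bean plants. Compound came from a 10,000 ppm stock in 35% aqueous acetone, with further dilution in water. Each primary leaf carried about 100 OP-resistant mites, allowed to settle ~2 h before dipping.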

[6] = system: M. incognita (Root Knot Nematode) larvae; assay: Evaluation of test compounds against M. incognita larvae in microtiter plate wells (movement score); details: larvae scored for movement after 20-24 hours; note: key: A score of '9' indicates inactive worms with a straight, sticklike morphology; A score of '8' indicates inactive worms with a limp, curled or curved morphology; A score of '7' indicates dead/paralyzed worms after 72 hours
How it was run: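 Scoring is by larval movement: dead or paralyzed worms count as positive, and a "7" means dead/paralyzed at 72 hours. Freshly hatched root-knot larvae (50-65 per well) in buffered S Medium were incubated with compounds under plate sealers for 20-24 h before the first read.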

[7] = system: Diabrotica undecimpunctata howardi, eggs-southern corn rootworm (SCR-Eggs); assay: Southern corn rootworm eggs (SCR-Eggs) treated diet test; parameters: key: 0 = no effect; 1 = 10-25% kill; 2 = 26-35% kill; 3 = 36-45% kill; 4 = 46-55% kill; 5 = 56-65% kill; 6 = 66-75% kill; 7 = 76-85% kill; 8 = 86-99% kill; 9 = 100% kill; details: mortality after 7 days
How it was run: as §1

[8] = system: Aphis gossypii, cotton aphid (CA); assay: Cotton aphid (CA) cotyledon dip test; parameters: key: 0 = no effect; 1 = 10-25% kill; 2 = 26-35% kill; 3 = 36-45% kill; 4 = 46-55% kill; 5 = 56-65% kill; 6 = 66-75% kill; 7 = 76-85% kill; 8 = 86-99% kill; 9 = 100% kill; details: mortality after 5 days
How it was run: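 Mortality was scored 5 days after dipping aphid-infested cotyledons, colonised overnight from a transfer leaf, into water dilutions of a 35% acetone/water compound solution.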

Compound | Rating Against C. elegans (150 ppm) [1] | SAW (300 ppm) rating [2] | WCR (50 ppm) rating [3] | SAW Eggs (300 ppm) rating [4] | TSM (300 ppm) rating [5] | M. incognita (150 ppm) score [6] | SCR Eggs (1000 ppm) rating [7] | CA (300 ppm) rating [8]
COC(=O)CSC(C[N+](=O)[O-])c1ccc(OC(F)(F)F)cc1 (racemic) [Example 117] | 8 | 0 | 0 | 0 | 0 | 0 | 0 | 0
COc1cccc(C(C[N+](=O)[O-])SCc2ccccc2)c1 (centres unmarked) [Example 60] | 0 | 0 | 0 | 0 | 0 | 0 | 0 | 0
CCOC(=O)CSC(C[N+](=O)[O-])c1ccc(OC(F)(F)F)cc1 (racemic) [Example 118] | 8 | 0 | 0 | 9 (9 = 100% kill) | 0 | 0 | 0 | 0
CCCOC(=O)CSC(C[N+](=O)[O-])c1ccc(OC(F)(F)F)cc1 (racemic) [Example 119] | 8 | 0 | 0 | 9 (9 = 100% kill) | 3 (3 = 36-45% kill) | 9 | 0 | 0
CCOC(=O)CSC(C[N+](=O)[O-])c1ccc(OC)cc1 (centres unmarked) [Example 48] | 9 | 0 | 0 | 0 | 0 | 9 | 0 | 0
CCCOC(=O)CSC(C[N+](=O)[O-])c1cccc(OC)c1 (racemic) [Example 103] | 8 | 0 | 0 | 0 | 4 (4 = 46-55% kill) | 9 | 0 | 0
COC(=O)CSC(C[N+](=O)[O-])c1cccc(C#N)c1 (racemic) [Example 98] | 8 | 5 (5 = 56-65% kill) | 0 | 0 | 3 (3 = 36-45% kill) | 0 | 0 | 0
CCOC(=O)CSC(C[N+](=O)[O-])c1ccc2c(c1)OCO2 (centres unmarked) [Example 19] | 9 | 0 | 3 (3 = 36-45% kill) | 0 | 0 | 9 | 0 | 0
O=[N+]([O-])CC(SCc1ccccc1)c1c(Cl)cccc1Cl (centres unmarked) [Example 137] | 0 | 0 | 0 | 9 (9 = 100% kill) | 0 | 0 | 9 (9 = 100% kill) | 0
CCOC(=O)CSC(C[N+](=O)[O-])c1c(Cl)cccc1Cl (centres unmarked) [Example 132] | 0 | 0 | 0 | 9 (9 = 100% kill) | 0 | 0 | 9 (9 = 100% kill) | 0
CC(C)CCCCCOC(=O)CSC(C[N+](=O)[O-])c1ccc2c(c1)OCO2 (centres unmarked) [Example 21] | 0 | 0 | 0 | 0 | 0 | 8 | 0 | 7 (7 = 76-85% kill)
COC(=O)CSC(C[N+](=O)[O-])c1cccnc1 (centres unmarked) [Example 171] | 7 | 0 | 0 | 0 | 0 | 9 | 0 | 0
CCCSC(C[N+](=O)[O-])c1ccc(OC(F)(F)F)cc1 (racemic) [Example 122] | 8 | 2 (2 = 26-35% kill) | 9 (9 = 100% kill) | 7 (7 = 76-85% kill) | 7 (7 = 76-85% kill) | 0 | 0 | 0
C=CCSC(C[N+](=O)[O-])c1ccc(OC(F)(F)F)cc1 (centres unmarked) [Example 123] | 7 | 0 | 5 (5 = 56-65% kill) | 8 (8 = 86-99% kill) | 0 | 0 | 0 | 0
COC(=O)CSC(C[N+](=O)[O-])c1cccc(OC)c1 (centres unmarked) [Example 55] | 8 | 4 (4 = 46-55% kill) | 0 | 0 | 0 | 9 | 0 | 0
CCOC(=O)CSC(C[N+](=O)[O-])c1cccc(C#N)c1 (racemic) [Example 99] | 0 | 0 | 0 | 0 | 0 | 0 | 0 | 0
CCOC(=O)CSC(C[N+](=O)[O-])c1cccc(OC)c1 (centres unmarked) [Example 56] | 8 | 0 | 0 | 0 | 5 (5 = 56-65% kill) | 9 | 0 | 0
CCCCOC(=O)CSC(C[N+](=O)[O-])c1cccc(OC)c1 (centres unmarked) [Example 57] | 7 | 0 | 0 | 0 | 0 | 9 | 0 | 0
O=C(CSC(C[N+](=O)[O-])c1c(Cl)cccc1Cl)OCc1ccccc1 (centres unmarked) [Example 135] | 0 | 0 | 0 | 0 | 0 | 0 | 9 (9 = 100% kill) | 0
